The target of this assay is T1, GPR119 (Homo sapiens, UniProt Q8TDV5).
T1 construct: host or cells: CHO-K1 (CRE-bla reporter, doxycycline-induced)
T1 sequence (Q8TDV5 1-335): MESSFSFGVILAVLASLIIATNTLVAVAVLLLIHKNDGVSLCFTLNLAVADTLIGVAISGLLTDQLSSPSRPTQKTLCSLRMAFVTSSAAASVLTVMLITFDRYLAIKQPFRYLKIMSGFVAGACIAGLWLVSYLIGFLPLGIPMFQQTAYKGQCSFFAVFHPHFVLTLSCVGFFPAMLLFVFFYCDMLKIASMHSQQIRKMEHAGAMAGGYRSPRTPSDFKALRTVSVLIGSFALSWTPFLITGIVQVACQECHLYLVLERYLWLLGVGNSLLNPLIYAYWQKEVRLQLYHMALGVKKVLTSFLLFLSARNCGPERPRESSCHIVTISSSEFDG
The assay is described as follows: Controlling Effect of GPR119 in CRE-bla CHO-K1 Cells (EC50). The class given is cell-based. The conditions noted are these: GPR119 CRE-bla CHO-K1 cell line, 5 hr incubation with compound, β-lactamase LiveBLAzer-FRET B/G readout; read-out: controlling effect against GPR119 in CRE-bla CHO-K1 cell line (EC50). Here is the method:
Controlling Effect of GPR119 in CRE-bla CHO-K1 Cells (EC50)
The day before the experiment, GPR119 CRE-bla CHO-K1 cell line purchased from Invitrogen was seeded in a 96 black well plate in an amount of 80 μl at a density of 5×10^4 cells. After the seeding, 10 μl of doxycycline in a concentration of 1 μg/ml was added to each well and incubated in an incubator at 37° C. under 5% CO2 for about 16 to 20 hr.
The day of experiment, sample compounds were performed a 10-fold serial dilution with a culture medium at various concentrations of 1 uM to […]. Considering that the culture medium used in the seeding and doxycycline are together applied, the sample compounds were diluted to a 5-fold dilution of the planned concentration. 20 μl of the compound diluted with the culture medium was added to each well and incubated in the incubator for 5 hr. The compound-untreated group was added with 20 μl of 0.5% dimethyl sulfoxide (DMSO) diluted with the culture medium. After 5 hr from the incubation, substrate mixture of a 6-fold concentration were prepared; 6 μl of 1 mM LiveBLAzer™-FRET B/G(CCF4-AM) substrate, 60 μl of solution B, 904 μl of solution C and 30 μl of solution D. 12 μl of the substrate mixture was added to each well and allowed to be kept at room temperature for 2 hr with shading the light. Fluorescence intensity value of blue channel and green channel was determined by a fluorescence microplate reader at 409 nm/460 nm and 409 nm/[…] (excitation/emission), respectively. In order to confirm the controlling effect of the inventive compounds against GPR119, EC50 (half maximal effective concentration) was determined based on the determined values. EC50, the concentration at which 50% activity of β-lactamase, was determined according to the following Equation: Equation=[(Ti−Tz)/(C−Tz)]×100
[Wherein, Ti: Cell density of the compound-treated group; Tz: Cell density of the negative control group; and C: Cell density of the positive control group]
Consider `CCc1cnc(N2CCC(Oc3ncnc4c(-c5ccc(S(C)(=O)=O)cc5)cn(C)c34)CC2)nc1` [Example 27, 4-(1-(5-ethylpyrimidin-2-yl)piperidin-4-yloxy)-5-methyl-7-(4-methanesulfonyl-phenyl)-5H-pyrrolo[3,2-d]pyrimidine], for which the EC50 was less than 100 nM.

In the case of `Cn1cc(-c2ccc(S(C)(=O)=O)cc2)c2ncnc(OC3CCN(c4ncc(C(F)(F)F)cn4)CC3)c21` [Example 28, 5-methyl-7-(4-methanesulfonyl-phenyl)-4-(1-(5-(trifluoromethyl)pyrimidin-2-yl)piperidin-4-yloxy)-5H-pyrrolo[3,2-d]pyrimidine], the EC50 was less than 100 nM.

Take `CCc1cnc(N2CCC(Oc3ncnc4c(-c5ccc(S(C)(=O)=O)cc5F)cn(C)c34)CC2)nc1` [Example 29, 4-(1-(5-ethylpyrimidin-2-yl)piperidin-4-yloxy)-7-(2-fluoro-4-methanesulfonyl-phenyl)-5-methyl-5H-pyrrolo[3,2-d]pyrimidine]: the half-maximal effective concentration (EC50) was less than 100 nM.

`CCCc1cnc(N2CCC(Oc3ncnc4c(-c5ccc(S(C)(=O)=O)cc5F)cn(C)c34)CC2)nc1` [Example 30]: the EC50 was less than 100 nM.

Turning to `Cn1cc(-c2ccc(S(C)(=O)=O)cc2F)c2ncnc(OC3CCN(c4ncc(C(F)(F)F)cn4)CC3)c21` [Example 31, 7-(2-fluoro-4-methanesulfonyl-phenyl)-5-methyl-4-(1-(5-(trifluoromethyl)pyrimidin-2-yl)piperidin-4-yloxy)-5H-pyrrolo[3,2-d]pyrimidine], the EC50 was less than 100 nM.

Regarding `CCc1cnc(N2CCC(Oc3ncnc4c(-c5ccc(S(C)(=O)=O)cc5)cn(CC)c34)CC2)nc1` [Example 32, 5-ethyl-4-(1-(5-ethylpyrimidin-2-yl)piperidin-4-yloxy)-7-(4-methanesulfonyl-phenyl)-5H-pyrrolo[3,2-d]pyrimidine], the EC50 was less than 100 nM.

For the molecule `CCc1cnc(N2CCC(Oc3ncnc4c(-c5ccc(S(C)(=O)=O)cc5F)cn(CC)c34)CC2)nc1` [Example 33, 5-ethyl-4-(1-(5-ethylpyrimidin-2-yl)piperidin-4-yloxy)-7-(2-fluoro-4-methanesulfonyl-phenyl)-5H-pyrrolo[3,2-d]pyrimidine], the EC50 was less than 100 nM.

With `CCCc1cnc(N2CCC(Oc3ncnc4c(-c5ccc(S(C)(=O)=O)cc5F)cn(CC)c34)CC2)nc1` [Example 34, 5-ethyl-7-(2-fluoro-4-methanesulfonyl-phenyl)-4-(1-(5-propylpyrimidin-2-yl)piperidin-4-yloxy)-5H-pyrrolo[3,2-d]pyrimidine], the EC50 is less than 100 nM.

Turning to `CC(C)c1noc(N2CCC(Oc3ncnc4c(-c5ccc(S(C)(=O)=O)cc5)cn(C)c34)CC2)n1` [Example 35, 3-isopropyl-5-(4-(5-methyl-7-(4-methanesulfonyl-phenyl)-5H-pyrrolo[3,2-d]pyrimidin-4-yloxy)piperidin-1-yl)-1,2,4-oxadiazole], the EC50 was less than 100 nM.

Consider `CC(C)c1noc(N2CCC(Oc3ncnc4c(-c5ccc(S(C)(=O)=O)cc5F)cn(C)c34)CC2)n1` [Example 36, 5-(4-(7-(2-fluoro-4-methanesulfonyl-phenyl)-5-methyl-5H-pyrrolo[3,2-d]pyrimidin-4-yloxy)piperidin-1-yl)-3-isopropyl-1,2,4-oxadiazole], for which the EC50 is less than 100 nM.

Turning to `CCn1cc(-c2ccc(S(C)(=O)=O)cc2F)c2ncnc(OC3CCN(c4nc(C(C)C)no4)CC3)c21` [Example 37, 5-(4-(5-ethyl-7-(2-fluoro-4-methanesulfonyl-phenyl)-5H-pyrrolo[3,2-d]pyrimidin-4-yloxy)piperidin-1-yl)-3-isopropyl-1,2,4-oxadiazole], the EC50 was less than 100 nM.

With `CC(C)c1noc(N2CC[C@H](Oc3ncnc4c(-c5ccc(S(C)(=O)=O)cc5)cn(C)c34)C2)n1` [Example 38, 4-[1-(3-isopropyl-[1,2,4]oxadiazol-5-yl)-pyrrolidin-3-yloxy]-7-(4-methanesulfonyl-phenyl)-5-methyl-5H-pyrrolo[3,2-d]pyrimidine], the EC50 was greater than 1000 nM.

Consider `CCc1cnc(N2CC[C@H](Oc3ncnc4c(-c5ccc(S(C)(=O)=O)cc5)cn(C)c34)C2)nc1` [Example 39, 4-[1-(5-ethylpyrimidin-2-yl)-pyrrolidin-3-yloxy]-7-(4-methanesulfonyl-phenyl)-5-methyl-5H-pyrrolo[3,2-d]pyrimidine], for which the EC50 lay within 100 to 1000 nM.

`Cn1cc(-c2ccc(S(C)(=O)=O)cc2)c2ncnc(OC3CCN(C(=O)NC(C)(C)C)CC3)c21` [Example 40, 4-[7-(4-methanesulfonyl-phenyl)-5-methyl-5H-pyrrolo[3,2-d]pyrimidin-4-yloxy]piperidin-1-carboxylic acid tert-butylamide]: the EC50 is 100 to 1000 nM.

`CC(C)c1noc(N2CCC(Oc3ncnc4c(-c5ccc(N)cc5)cn(C)c34)CC2)n1` [Example 41, 4-(4-(1-(3-isopropyl-1,2,4-oxadiazol-5-yl)piperidin-4-yloxy)-5-methyl-5H-pyrrolo[3,2-d]piperidin-7-yl)benzenamine]: the EC50 is greater than 1000 nM.

`CC(C)c1noc(N2CCC(Oc3ncnc4c(-c5ccc([N+](=O)[O-])cc5)cn(C)c34)CC2)n1` [Example 42, 3-isopropyl-5-(4-(5-methyl-7-(4-nitrophenyl)-5H-pyrrolo[3,2-d]pyrimidin-4-yloxy)piperidin-1-yl)-1,2,4-oxadiazole]: the EC50 is greater than 1000 nM.

Consider `CCc1cnc(N2CCC(Oc3ncnc4c(-c5ccc(C#N)cc5)cn(C)c34)CC2)nc1` [Example 43, 4-{4-[1-(5-ethylpyrimidin-2-yl)-piperidin-4-yloxy]-5-methyl-5H-pyrrolo[3,2-d]pyrimidin-7-yl}-benzonitrile], for which the EC50 is greater than 1000 nM.

Consider `CCc1cnc(N2CCC(Oc3ncnc4c(-c5ccc(C(C)=O)cc5)cn(C)c34)CC2)nc1` [Example 44, 1-(4-{4-[1-(5-ethylpyrimidin-2-yl)-piperidin-4-yloxy]-5-methyl-5H-pyrrolo[3,2-d]pyrimidin-7-yl}-phenyl)-ethanone], for which the 50% effective concentration (EC50) fell in the range of 100 to 1000 nM.

On to `CC(C)N1CCC(Oc2ncnc3c(-c4ccc(S(C)(=O)=O)cc4)cn(C)c23)CC1` [Example 45, 4-(1-isopropyl-piperidin-4-yloxy)-7-(4-methanesulfonyl-phenyl)-5-methyl-5H-pyrrolo[3,2-d]pyrimidine], for which the EC50 was 100 to 1000 nM.

As for `Cn1cc(-c2ccc(S(C)(=O)=O)cc2)c2ncnc(OC3CCN(C(=O)C(C)(C)C)CC3)c21` [Example 46, 1-{4-[7-(4-methanesulfonyl-phenyl)-5-methyl-5H-pyrrolo[3,2-d]pyrimidin-4-yloxy]-piperidin-1-yl}-2,2-dimethynyl-propan-1-one], the EC50 lay in the range of 100 to 1000 nM.

Take `Cn1cc(-c2ccc(F)nc2)c2ncnc(OC3CCN(C(=O)OC(C)(C)C)CC3)c21` [Example 47, tert-butyl 4-(7-(6-fluoropyridin-3-yl)-5-methyl-5H-pyrrolo[3,2-d]pyrimidin-4-yloxy)piperidine-1-carboxylate]: the EC50 was greater than 1000 nM.

Regarding `CCc1cnc(N2CCC(Oc3ncnc4c(-c5ccc(F)nc5)cn(C)c34)CC2)nc1` [Example 48, 4-(1-(5-ethylpyrimidin-2-yl)piperidin-4-yloxy)-7-(6-fluoropyridin-3-yl)-5-methyl-5H-pyrrolo[3,2-d]pyrimidine], the EC50 is greater than 1000 nM.

Regarding `CCc1cnc(N2CCC(COc3ncnc4c(-c5ccc(S(C)(=O)=O)cc5)cn(C)c34)CC2)nc1` [Example 49, 4-((1-(5-ethylpyrimidin-2-yl)piperidin-4-yl)methoxy)-5-methyl-7-(4-methanesulfonyl-phenyl)-5H-pyrrolo[3,2-d]pyrimidine], the EC50 lay in the range of 100 to 1000 nM.

For `CC(C)(C)OC(=O)N1CCC(Oc2ncnc3c(-c4ccc(S(C)(=O)=O)cc4)csc23)CC1` [Example 50, tert-butyl 4-(7-(4-methanesulfonyl-phenyl)thieno[3,2-d]pyrimidin-4-yloxy)piperidine-1-carboxylate], the EC50 was less than 100 nM.

On to `CC(C)c1noc(N2CCC(Oc3ncnc4c(-c5ccc(S(C)(=O)=O)cc5)csc34)CC2)n1` [Example 51], for which the EC50 is less than 100 nM.

For the molecule `CS(=O)(=O)c1ccc(-c2csc3c(OC4CCN(c5nc(CC6CC6)no5)CC4)ncnc23)cc1` [Example 52, 3-(cyclopropylmethyl)-5-(4-(7-(4-methanesulfonyl-phenyl)thieno[3,2-d]pyrimidin-4-yloxy)piperidin-1-yl)-1,2,4-oxadiazole], the EC50 is less than 100 nM.

Source of the values: patent publication US8853213B2, “Bicyclic compound for modulating G protein-coupled receptors” (Hanmi Pharm. Co., Ltd, priority 2011, dated 2014).
